Laboratory results reported in ChEMBL document CHEMBL1909046, “DrugMatrix in vitro pharmacology data”.

Columns and labels:
[1] = DRUGMATRIX: Nicotinic Acetylcholine radioligand binding (ligand: [125I] Epibatidine); format: cell membranes, Membrane; settings: imr-32; Not Active = under 50% inhibition at 10 µM
Cytochrome P450 1A2 = target: T1, Cytochrome P450 1A2 (Homo sapiens, UniProt P05177); settings: bti-tn-5b1-4; also: in other assays of this panel Not Active means under 50% inhibition at 10 µM
T1 sequence (P05177 whole entry): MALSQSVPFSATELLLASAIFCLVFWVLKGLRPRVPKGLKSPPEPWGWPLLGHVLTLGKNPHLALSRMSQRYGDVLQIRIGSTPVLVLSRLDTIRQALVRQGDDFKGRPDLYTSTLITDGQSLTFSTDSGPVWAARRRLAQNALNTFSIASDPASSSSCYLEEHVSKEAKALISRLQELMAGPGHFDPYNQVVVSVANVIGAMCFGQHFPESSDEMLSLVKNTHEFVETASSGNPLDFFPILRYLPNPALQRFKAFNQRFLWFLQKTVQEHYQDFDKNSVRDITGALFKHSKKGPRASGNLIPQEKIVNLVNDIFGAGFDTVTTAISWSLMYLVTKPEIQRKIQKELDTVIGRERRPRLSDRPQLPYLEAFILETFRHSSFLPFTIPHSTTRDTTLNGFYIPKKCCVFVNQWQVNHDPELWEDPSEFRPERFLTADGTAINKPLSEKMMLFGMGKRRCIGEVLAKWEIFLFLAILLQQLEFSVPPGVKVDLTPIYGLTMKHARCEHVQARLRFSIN

[2] = target: T2, 5-hydroxytryptamine receptor 2C (Homo sapiens, UniProt P28335); test: DRUGMATRIX: Serotonin (5-Hydroxytryptamine) 5-HT2C radioligand binding (ligand: [3H] Mesulergine); format: cell membranes, CHO-K1, Membrane; settings: cho-k1; Not Active = under 50% inhibition at 10 µM
T2 sequence (P28335 whole entry): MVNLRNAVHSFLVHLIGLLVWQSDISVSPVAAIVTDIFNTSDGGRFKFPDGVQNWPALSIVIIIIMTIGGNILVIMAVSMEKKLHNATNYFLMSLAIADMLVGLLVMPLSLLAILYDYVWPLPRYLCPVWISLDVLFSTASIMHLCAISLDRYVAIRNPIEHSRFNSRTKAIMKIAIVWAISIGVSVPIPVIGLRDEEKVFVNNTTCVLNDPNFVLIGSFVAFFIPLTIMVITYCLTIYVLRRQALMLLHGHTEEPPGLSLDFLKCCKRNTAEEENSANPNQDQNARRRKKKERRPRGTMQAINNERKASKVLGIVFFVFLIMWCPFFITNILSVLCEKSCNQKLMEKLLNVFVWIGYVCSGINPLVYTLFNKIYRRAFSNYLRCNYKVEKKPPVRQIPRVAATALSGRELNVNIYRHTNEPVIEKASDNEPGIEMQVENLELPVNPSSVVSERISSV

[3] = target: Delta-type opioid receptor (Homo sapiens, UniProt P41143); format: cell membranes, Membrane; settings: hek293; also: in other assays of this panel Not Active means under 50% inhibition at 10 µM
[4] = target: T3, Receptor-type tyrosine-protein phosphatase C (Homo sapiens, UniProt P08575); parameters: species or system Escherichia coli;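 also: inhibition of CD45 enzyme activity measured using DiFMUP as substrate; in other assays of this panel Not Active means under 50% inhibition at 10 µM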
T3 sequence (P08575 whole entry): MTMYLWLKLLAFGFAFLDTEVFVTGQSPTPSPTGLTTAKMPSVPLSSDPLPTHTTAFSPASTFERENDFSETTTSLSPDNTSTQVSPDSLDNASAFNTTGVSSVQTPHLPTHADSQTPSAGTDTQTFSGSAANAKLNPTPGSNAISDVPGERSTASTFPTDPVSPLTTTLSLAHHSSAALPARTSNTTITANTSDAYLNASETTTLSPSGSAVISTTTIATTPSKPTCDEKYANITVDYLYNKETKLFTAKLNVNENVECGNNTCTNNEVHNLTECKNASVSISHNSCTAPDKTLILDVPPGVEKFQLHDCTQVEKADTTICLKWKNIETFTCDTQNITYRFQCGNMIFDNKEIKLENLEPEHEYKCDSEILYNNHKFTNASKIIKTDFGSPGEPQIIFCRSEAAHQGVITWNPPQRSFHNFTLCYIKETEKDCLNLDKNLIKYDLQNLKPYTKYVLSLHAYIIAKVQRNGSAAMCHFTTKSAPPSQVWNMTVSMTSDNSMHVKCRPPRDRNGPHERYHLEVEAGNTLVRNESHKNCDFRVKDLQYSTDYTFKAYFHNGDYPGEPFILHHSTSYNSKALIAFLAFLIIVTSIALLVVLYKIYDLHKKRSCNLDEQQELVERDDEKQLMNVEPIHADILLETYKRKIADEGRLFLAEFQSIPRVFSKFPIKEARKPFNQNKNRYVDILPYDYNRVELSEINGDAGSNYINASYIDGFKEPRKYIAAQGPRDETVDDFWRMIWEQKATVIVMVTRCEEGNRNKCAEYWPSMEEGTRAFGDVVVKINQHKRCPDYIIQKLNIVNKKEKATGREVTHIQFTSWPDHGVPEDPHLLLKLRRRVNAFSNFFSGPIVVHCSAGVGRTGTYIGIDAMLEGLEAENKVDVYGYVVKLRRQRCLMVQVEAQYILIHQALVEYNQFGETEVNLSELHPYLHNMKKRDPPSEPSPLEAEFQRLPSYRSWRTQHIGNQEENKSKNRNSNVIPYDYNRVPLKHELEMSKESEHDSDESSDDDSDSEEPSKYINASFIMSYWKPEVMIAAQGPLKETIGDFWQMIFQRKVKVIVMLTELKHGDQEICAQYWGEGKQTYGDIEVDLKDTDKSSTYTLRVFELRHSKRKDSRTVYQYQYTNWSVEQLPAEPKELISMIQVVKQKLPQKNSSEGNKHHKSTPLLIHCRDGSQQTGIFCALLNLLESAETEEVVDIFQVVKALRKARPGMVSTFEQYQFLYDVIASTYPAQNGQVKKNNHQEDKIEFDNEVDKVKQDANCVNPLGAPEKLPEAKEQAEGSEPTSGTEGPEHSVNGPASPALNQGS

[5] = DRUGMATRIX: Phosphodiesterase PDE3 enzyme inhibition (substrate: [3H]cAMP + cAMP); format: tissue-based, Homo sapiens; settings: platelet; Not Active = under 50% inhibition at 10 µM
[6] = target: 5-hydroxytryptamine receptor 6 (Homo sapiens, UniProt P50406); format: cell membranes, HeLa, Membrane; settings: hela; also: in other assays of this panel Not Active means under 50% inhibition at 10 µM
5-hydroxytryptamine receptor 6, sequence (P50406 whole entry): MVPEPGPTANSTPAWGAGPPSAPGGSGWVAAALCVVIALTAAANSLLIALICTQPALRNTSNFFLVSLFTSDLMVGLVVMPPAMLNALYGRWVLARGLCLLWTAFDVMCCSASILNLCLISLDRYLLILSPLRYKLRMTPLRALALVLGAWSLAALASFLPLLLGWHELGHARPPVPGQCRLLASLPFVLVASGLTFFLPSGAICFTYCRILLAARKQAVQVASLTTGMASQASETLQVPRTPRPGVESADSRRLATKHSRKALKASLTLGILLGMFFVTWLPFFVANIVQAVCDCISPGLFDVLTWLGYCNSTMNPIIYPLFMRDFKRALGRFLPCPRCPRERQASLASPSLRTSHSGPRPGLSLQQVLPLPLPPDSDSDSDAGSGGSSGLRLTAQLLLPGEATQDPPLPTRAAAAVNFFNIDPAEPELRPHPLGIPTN

Delta-type opioid receptor, sequence (P41143 whole entry): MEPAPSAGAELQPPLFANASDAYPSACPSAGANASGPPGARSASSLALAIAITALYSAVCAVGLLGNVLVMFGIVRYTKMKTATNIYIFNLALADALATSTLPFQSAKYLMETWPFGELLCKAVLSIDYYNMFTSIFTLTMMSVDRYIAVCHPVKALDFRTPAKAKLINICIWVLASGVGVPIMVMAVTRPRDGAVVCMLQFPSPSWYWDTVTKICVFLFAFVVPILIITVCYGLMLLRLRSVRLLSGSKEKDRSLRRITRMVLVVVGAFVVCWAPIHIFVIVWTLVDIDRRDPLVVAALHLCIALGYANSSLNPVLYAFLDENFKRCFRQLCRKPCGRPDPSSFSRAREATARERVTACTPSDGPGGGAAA

CC[C@H](C)[C@H]1O[C@]2(C=C[C@@H]1C)C[C@@H]1C[C@@H](C/C=C(\C)[C@@H](O[C@H]3C[C@H](OC)[C@@H](O[C@H]4C[C@H](OC)[C@@H](O)[C@H](C)O4)[C@H](C)O3)[C@@H](C)/C=C/C=C3\CO[C@@H]4[C@H](O)C(C)=C[C@@H](C(=O)O1)[C@]34O)O2.CO[C@H]1C[C@H](O[C@H]2[C@H](C)O[C@@H](O[C@@H]3/C(C)=C/C[C@@H]4C[C@@H](C[C@]5(C=C[C@H](C)[C@@H](C(C)C)O5)O4)OC(=O)[C@@H]4C=C(C)[C@@H](O)[C@H]5OC/C(=C\C=C\[C@@H]3C)[C@]54O)C[C@@H]2OC)O[C@@H](C)[C@@H]1O [ABAMECTIN]
Not Active: IC50 [1] | Ki [1] | IC50 (Cytochrome P450 1A2) | Ki (Cytochrome P450 1A2) | IC50 [2] | IC50 [3] | IC50 [4] | IC50 [5] | Ki [5] | IC50 [6]

Cc1nnc2n1-c1ccc(Cl)cc1C(c1ccccc1)=NC2 [ALPRAZOLAM]
Not Active: IC50 [1] | Ki [1] | IC50 (Cytochrome P450 1A2) | Ki (Cytochrome P450 1A2) | IC50 [2] | IC50 [3] | IC50 [4] | IC50 [5] | Ki [5] | IC50 [6]

Cn1c(=O)c2[nH]cnc2n(C)c1=O.Cn1c(=O)c2[nH]cnc2n(C)c1=O.NCCN [AMINOPHYLLINE]
Not Active: IC50 [1] | Ki [1] | IC50 (Cytochrome P450 1A2) | Ki (Cytochrome P450 1A2) | IC50 [2] | IC50 [3] | IC50 [4] | IC50 [5] | Ki [5] | IC50 [6]

CCC1(CCC(C)C)C(=O)NC(=O)NC1=O [AMOBARBITAL]
Not Active: IC50 [1] | Ki [1] | IC50 (Cytochrome P450 1A2) | Ki (Cytochrome P450 1A2) | IC50 [2] | IC50 [3] | IC50 [4] | IC50 [5] | Ki [5] | IC50 [6]

CC1(C)S[C@@H]2[C@H](NC(=O)[C@H](N)c3ccccc3)C(=O)N2[C@H]1C(=O)O [AMPICILLIN]
Not Active: IC50 [1] | Ki [1] | IC50 (Cytochrome P450 1A2) | Ki (Cytochrome P450 1A2) | IC50 [2] | IC50 [3] | IC50 [4] | IC50 [5] | Ki [5] | IC50 [6]

COc1ccc(C2C(=O)c3ccccc3C2=O)cc1 [ANISINDIONE]
Not Active: IC50 [1] | Ki [1] | IC50 (Cytochrome P450 1A2) | Ki (Cytochrome P450 1A2) | IC50 [2] | IC50 [3] | IC50 [4] | IC50 [5] | Ki [5] | IC50 [6]

O=C1O[C@H]([C@@H](O)CO)C(O)=C1O [ASCORBIC ACID]
Not Active: IC50 [1] | Ki [1] | IC50 (Cytochrome P450 1A2) | Ki (Cytochrome P450 1A2) | IC50 [2] | IC50 [3] | IC50 [4] | IC50 [5] | Ki [5] | IC50 [6]

CC(C(=O)O)c1ccc2oc(-c3ccc(Cl)cc3)nc2c1 (stereo not given) [BENOXAPROFEN]
Not Active: IC50 [1] | Ki [1] | IC50 (Cytochrome P450 1A2) | Ki (Cytochrome P450 1A2) | IC50 [2] | IC50 [3] | IC50 [4] | IC50 [5] | Ki [5] | IC50 [6]

COc1ccc2cc3[n+](cc2c1OC)CCc1cc2c(cc1-3)OCO2.[Cl-] [BERBERINE CHLORIDE]
Not Active: IC50 [1] | Ki [1] | IC50 (Cytochrome P450 1A2) | Ki (Cytochrome P450 1A2) | IC50 [2] | IC50 [3] | IC50 [4] | IC50 [5] | Ki [5] | IC50 [6]

O=C(O)CCNC(=O)c1ccccc1 [BETAMIPRON]
Not Active: IC50 [1] | Ki [1] | IC50 (Cytochrome P450 1A2) | Ki (Cytochrome P450 1A2) | IC50 [2] | IC50 [3] | IC50 [4] | IC50 [5] | Ki [5] | IC50 [6]

CC(=O)Oc1ccc(C(c2ccc(OC(C)=O)cc2)c2ccccn2)cc1 [BISACODYL]
Not Active: IC50 [1] | Ki [1] | IC50 (Cytochrome P450 1A2) | Ki (Cytochrome P450 1A2) | IC50 [2] | IC50 [3] | IC50 [4] | IC50 [5] | Ki [5] | IC50 [6]

Cc1cc2c(OCC(CNC(C)(C)C)OC(=O)c3ccccc3)cccc2[nH]1 (stereo not given) [BOPINDOLOL]
Not Active: IC50 [1] | Ki [1] | IC50 (Cytochrome P450 1A2) | Ki (Cytochrome P450 1A2) | IC50 [2] | IC50 [3] | IC50 [4] | IC50 [5] | Ki [5] | IC50 [6]

Brc1c(NC2=NCCN2)ccc2nccnc12 [BRIMONIDINE]
Not Active: IC50 [1] | Ki [1] | IC50 (Cytochrome P450 1A2) | Ki (Cytochrome P450 1A2) | IC50 [2] | IC50 [3] | IC50 [4] | IC50 [5] | Ki [5] | IC50 [6]

CN(C)[C@@H]1C(O)=C(C(N)=O)C(=O)[C@@]2(O)C(O)=C3C(=O)c4c(O)ccc(Cl)c4[C@@](C)(O)[C@H]3C[C@@H]12 [CHLORTETRACYCLINE]
Not Active: IC50 [1] | Ki [1] | IC50 (Cytochrome P450 1A2) | Ki (Cytochrome P450 1A2) | IC50 [2] | IC50 [3] | IC50 [4] | IC50 [5] | Ki [5] | IC50 [6]

CN/C(=N\CCSCc1nc[nH]c1C)NC#N [CIMETIDINE]
Not Active: IC50 [1] | Ki [1] | IC50 (Cytochrome P450 1A2) | Ki (Cytochrome P450 1A2) | IC50 [2] | IC50 [3] | IC50 [4] | IC50 [5] | Ki [5] | IC50 [6]

CCC(=O)O[C@]1(C(=O)CCl)[C@@H](C)C[C@H]2[C@@H]3CCC4=CC(=O)C=C[C@]4(C)[C@@]3(F)[C@@H](O)C[C@@]21C [CLOBETASOL PROPIONATE]
Not Active: IC50 [1] | Ki [1] | IC50 (Cytochrome P450 1A2) | Ki (Cytochrome P450 1A2) | IC50 [2] | IC50 [3] | IC50 [4] | IC50 [5] | Ki [5] | IC50 [6]
